Laboratory results: ChEMBL document CHEMBL1136088, “Antitumor agents. Part 218: Cappamensin A, a new In vitro anticancer principle, from Capparis sikkimensis” (2003)
In brackets after ≈: the same amount, converted by molar mass. Activity calls are given as the source filed them. The calls are words filed in the database; no cut-off is given here.

Tests used:
[1] = In vitro anticancer activity against human epidermoid nasopharyngeal tumor cell line (KB); assay type: functional; conditions: for EC50: read-out: ED50 (the source's name)
[2] = system: HCT-8; assay: In vitro anticancer activity against human ileocecal tumor cell line (HCT-8); assay type: functional; conditions: for EC50: read-out: ED50 (the source's name)
[3] = system: KB-VIN; assay: In vitro anticancer activity against human vincristine-resistant tumor cell line (KB-VIN); conditions: read-out: ED50 (the source's name)
[4] = system: SK-MEL-2; assay: In vitro anticancer activity against human melanoma cancer (SK-MEL-2) cell line; not active at 20 ug/mL; assay type: functional, cell-based
[5] = system: MCF7; assay: In vitro anticancer activity against human breast (MCF-7) cell line; assay type: functional; conditions: for EC50: read-out: ED50 (the source's name)
[6] = system: PC-3; assay: In vitro anticancer activity against human prostate (PC-3) cell line; assay type: functional; conditions: for EC50: read-out: ED50 (the source's name)
[7] = system: KB-VIN; assay: In vitro anticancer activity against human vincristine-resistant tumor cell line (KB-VIN)
[8] = system: A549; assay: In vitro anticancer activity against human lung (A549) cell line; assay type: functional; conditions: for EC50: read-out: ED50 (the source's name)
[9] = In vitro anticancer activity against human ovarian cancer ([…]) cell line; assay type: functional; conditions: read-out: ED50 (the source's name)
[10] = system: U-87 MG; assay: In vitro anticancer activity against human glioblastoma tumor cell line (U-87-MG); assay type: functional, U-87MG ATCC; conditions: for EC50: read-out: ED50 (the source's name)
[11] = system: SK-MEL-2; assay: In vitro anticancer activity against human melanoma cancer (SK-MEL-2) cell line; assay type: functional

Row | Structure (SMILES) | Inhibition [1] [%] | EC50 [1] [µg/mL] | Inhibition [2] [%] | EC50 [2] [µg/mL] | EC50 [3] [µg/mL] | ED50 [4] | Inhibition [5] [%] | EC50 [5] [µg/mL] | Inhibition [6] [%] | EC50 [6] [µg/mL] | Inhibition [7] [%] | Inhibition [8] [%] | EC50 [8] [µg/mL] | EC50 [9] [µg/mL] | Inhibition [10] [%] | EC50 [10] [µg/mL] | Inhibition [11] [%] | EC50 ([11]; read-out: ED50 (the source's name)) [µg/mL]
1 | COC1=C(C)Oc2cc(OC)ccc2N1C=O | 22 | > 20 | 39 | > 20 | > 20 | inactive | 49 | > 20 | 37 | > 20 | 20 | 36 | > 20 | 20 (≈ 85 µM) | 19 | > 20 | – | –
2 | COc1ccc2c(c1)OC(C)=C(O)N2C=O | – | 4 (≈ 18.1 µM) | – | 3.6 (≈ 16.3 µM) | 3.5 (≈ 15.8 µM) | – | – | 4 (≈ 18.1 µM) | – | 4.7 (≈ 21.2 µM) | – | – | 3.6 (≈ 16.3 µM) | 2.4 (≈ 10.8 µM) | 36 | > 5 | 30 | > 5
